Reference: ChEMBL document CHEMBL1201862, “PubChem BioAssay data set” (2004)
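96-well plates; 48 h exposure; 5 concentrations. Endpoints by linear interpolation between flanking doses. Not reached: highest tested concentration assigned. GI50 marks 50% less growth.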 Calls of active or inactive are those of the source. No stated cut-off is given here; in the data, active = GI50 up to about 1.1 µM and inactive = higher.

Legend:
Assay in all cases: inhibition of tumour cell growth, NCI panel, 48 h
[1] = test system: U-251
[2] = test system: Malme-3M
[3] = test system: HOP-92
[4] = test system: OVCAR-3
[5] = test system: MDA-MB-231
[6] = test system: MCF7
[7] = test system: SF-268
[8] = test system: K562
[9] = test system: OVCAR-4
[10] = test system: TK-10
[11] = test system: MDA-N
[12] = test system: SR
[13] = test system: SW-620
[14] = test system: SF-539
[15] = test system: HCT-116
[16] = test system: KM12
[17] = test system: RXF 393
[18] = test system: NCI-H522
[19] = test system: UACC-257
[20] = test system: SF-295
[21] = test system: HT-29
[22] = test system: COLO 205
[23] = test system: EKVX
[24] = test system: T47D
[25] = test system: SN12C
[26] = test system: SNB-19
[27] = test system: ACHN
[28] = test system: OVCAR-5
[29] = test system: NCI-H460
[30] = test system: OVCAR-8
[31] = test system: M14
[32] = test system: HCT-15
[33] = test system: NCI/ADR-RES
[34] = test system: CAKI-1
[35] = test system: MDA-MB-435
[36] = test system: NCI-H23
[37] = test system: SK-MEL-5
[38] = test system: NCI-H226
[39] = test system: SNB-75
[40] = test system: IGROV-1
[41] = test system: PC-3
[42] = test system: A549
[43] = test system: MOLT-4
[44] = test system: UACC-62
[45] = test system: CCRF-CEM
[46] = test system: HOP-62
[47] = test system: SK-MEL-28
[48] = test system: 786-0
[49] = test system: Hs-578T
[50] = test system: UO-31
[51] = test system: SK-OV-3
[52] = test system: HCC 2998
[53] = test system: BT-549
[54] = test system: LOX IMVI
[55] = test system: A498
[56] = test system: SK-MEL-2
[57] = test system: RPMI-8226
[58] = test system: HL-60
[59] = test system: DU-145

SMILES: Cn1c(S)nnc1-c1csc(-c2ccc(Cl)cc2)n1
- GI50 [1]: > 10 µM (inactive)
- GI50 [2]: 30.3 µM (inactive)
- GI50 [3]: 12 µM (inactive)
- GI50 [4]: 19.1 µM (inactive)
- GI50 [5]: 24 µM (inactive)
- GI50 [6]: 37.2 µM (inactive)
- GI50 [7]: 29.3 µM (inactive)
- GI50 [8]: > 100 µM (inactive)
- GI50 [9]: 26.1 µM (inactive)
- GI50 [10]: 20.4 µM (inactive)
- GI50 [11]: 61 µM (inactive)
- GI50 [12]: > 100 µM (inactive)
- GI50 [13]: 32.6 µM (inactive)
- GI50 [14]: 22.2 µM (inactive)
- GI50 [15]: 17.7 µM (inactive)
- GI50 [16]: > 100 µM (inactive)
- GI50 [17]: 19 µM (inactive)
- GI50 [18]: 19.4 µM (inactive)
- GI50 [19]: > 100 µM (inactive)
- GI50 [20]: 15.6 µM (inactive)
- GI50 [21]: > 100 µM (inactive)
- GI50 [22]: > 100 µM (inactive)
- GI50 [23]: 30.7 µM (inactive)
- GI50 [24]: 35.3 µM (inactive)
- GI50 [25]: 38.8 µM (inactive)
- GI50 [26]: 17.5 µM (inactive)
- GI50 [27]: 18.7 µM (inactive)
- GI50 [28]: 34.4 µM (inactive)
- GI50 [29]: 21.3 µM (inactive)
- GI50 [30]: 21.8 µM (inactive)
- GI50 [31]: 33.1 µM (inactive)
- GI50 [32]: 53.8 µM
- GI50 [33]: 25.2 µM (inactive)
- GI50 [34]: 23.4 µM (inactive)
- GI50 [35]: > 100 µM (inactive)
- GI50 [36]: 15 µM (inactive)
- GI50 [37]: > 100 µM (inactive)
- GI50 [38]: 23.1 µM (inactive)
- GI50 [39]: 18.7 µM (inactive)
- GI50 [40]: 16 µM (inactive)
- GI50 [41]: 35.7 µM (inactive)
- GI50 [42]: 32.6 µM (inactive)
- GI50 [43]: 55.8 µM (inactive)
- GI50 [44]: 23.9 µM (inactive)
- GI50 [45]: > 100 µM (inactive)
- GI50 [46]: 15.4 µM (inactive)
- GI50 [47]: 44.6 µM (inactive)
- GI50 [48]: 17 µM (inactive)
- GI50 [49]: 29.7 µM (inactive)
- GI50 [50]: 22.5 µM (inactive)
- GI50 [51]: 17.6 µM (inactive)
- GI50 [52]: > 100 µM (inactive)
- GI50 [53]: 22.1 µM (inactive)
- GI50 [54]: 21.7 µM (inactive)

SMILES: COc1ccc2nc3c(c(N)c2c1)C1CCC3C1(C)C (stereo not drawn)
- GI50 [1]: 38.5 µM (inactive)
- GI50 [2]: 24.3 µM (inactive)
- GI50 [3]: 16.4 µM (inactive)
- GI50 [4]: 31.9 µM (inactive)
- GI50 [5]: 24 µM (inactive)
- GI50 [6]: 24 µM (inactive)
- GI50 [7]: 72.1 µM (inactive)
- GI50 [8]: 41.7 µM (inactive)
- GI50 [9]: 47.6 µM (inactive)
- GI50 [10]: 32.7 µM (inactive)
- GI50 [12]: 34.8 µM (inactive)
- GI50 [13]: 25.5 µM (inactive)
- GI50 [14]: 38.2 µM (inactive)
- GI50 [15]: 32.4 µM (inactive)
- GI50 [16]: 42.9 µM (inactive)
- GI50 [55]: 25.1 µM (inactive)
- GI50 [17]: 23 µM (inactive)
- GI50 [18]: 34.7 µM (inactive)
- GI50 [19]: 18.9 µM (inactive)
- GI50 [20]: 20.6 µM (inactive)
- GI50 [21]: 23.8 µM (inactive)
- GI50 [22]: 17.1 µM (inactive)
- GI50 [23]: 30.6 µM (inactive)
- GI50 [24]: 22.7 µM (inactive)
- GI50 [25]: 52.1 µM (inactive)
- GI50 [56]: 25.5 µM (inactive)
- GI50 [26]: > 100 µM (inactive)
- GI50 [27]: > 100 µM (inactive)
- GI50 [28]: 41 µM (inactive)
- GI50 [29]: 31.2 µM (inactive)
- GI50 [57]: 23.5 µM (inactive)
- GI50 [30]: 71.1 µM (inactive)
- GI50 [31]: 17.8 µM (inactive)
- GI50 [32]: 51.1 µM
- GI50 [33]: > 100 µM (inactive)
- GI50 [34]: 39.3 µM (inactive)
- GI50 [35]: 33 µM (inactive)
- GI50 [36]: 54.8 µM (inactive)
- GI50 [37]: 12.5 µM (inactive)
- GI50 [38]: 25.3 µM (inactive)
- GI50 [39]: 29.6 µM (inactive)
- GI50 [40]: 42.9 µM (inactive)
- GI50 [41]: 24.3 µM (inactive)
- GI50 [42]: 70.5 µM (inactive)
- GI50 [43]: 46.9 µM (inactive)
- GI50 [44]: 15.3 µM (inactive)
- GI50 [45]: 14.1 µM (inactive)
- GI50 [46]: 16 µM (inactive)
- GI50 [47]: 30.8 µM (inactive)
- GI50 [58]: 18.5 µM (inactive)
- GI50 [48]: 22.5 µM (inactive)
- GI50 [49]: > 100 µM (inactive)
- GI50 [50]: 47.4 µM (inactive)
- GI50 [51]: 28.1 µM (inactive)
- GI50 [52]: 17.5 µM (inactive)
- GI50 [53]: > 100 µM (inactive)
- GI50 [59]: > 100 µM (inactive)
- GI50 [54]: 35.9 µM (inactive)

SMILES: C=C(C)CCC(=O)[C@](C)(O)[C@H]1[C@H](O)C[C@@]2(C)[C@@H]3CCc4c(cc(OC5OC(CO)C(O)C(O)C5O)c(O)c4C)C3(C)C(=O)C[C@]12C (stereo partly drawn)
- GI50 [1]: > 100 µM (inactive)
- GI50 [2]: > 100 µM (inactive)
- GI50 [3]: > 100 µM (inactive)
- GI50 [4]: > 100 µM (inactive)
- GI50 [5]: > 100 µM (inactive)
- GI50 [6]: > 100 µM (inactive)
- GI50 [7]: > 100 µM (inactive)
- GI50 [8]: > 100 µM (inactive)
- GI50 [9]: > 100 µM (inactive)
- GI50 [10]: > 100 µM (inactive)
- GI50 [11]: > 100 µM (inactive)
- GI50 [12]: > 100 µM (inactive)
- GI50 [13]: > 100 µM (inactive)
- GI50 [14]: > 100 µM (inactive)
- GI50 [15]: > 100 µM (inactive)
- GI50 [16]: > 100 µM (inactive)
- GI50 [55]: > 100 µM (inactive)
- GI50 [17]: > 100 µM (inactive)
- GI50 [18]: > 100 µM (inactive)
- GI50 [19]: > 100 µM (inactive)
- GI50 [20]: > 100 µM (inactive)
- GI50 [21]: > 100 µM (inactive)
- GI50 [22]: > 100 µM (inactive)
- GI50 [23]: > 100 µM (inactive)
- GI50 [24]: > 100 µM (inactive)
- GI50 [25]: > 100 µM (inactive)
- GI50 [56]: > 100 µM (inactive)
- GI50 [26]: > 100 µM (inactive)
- GI50 [27]: > 100 µM (inactive)
- GI50 [28]: > 100 µM (inactive)
- GI50 [29]: > 100 µM (inactive)
- GI50 [30]: > 100 µM (inactive)
- GI50 [31]: > 100 µM (inactive)
- GI50 [32]: > 100 µM
- GI50 [33]: > 100 µM (inactive)
- GI50 [34]: > 100 µM (inactive)
- GI50 [35]: > 100 µM (inactive)
- GI50 [36]: > 100 µM (inactive)
- GI50 [37]: > 100 µM (inactive)
- GI50 [38]: > 100 µM (inactive)
- GI50 [39]: > 100 µM (inactive)
- GI50 [40]: > 100 µM (inactive)
- GI50 [41]: > 100 µM (inactive)
- GI50 [42]: > 100 µM (inactive)
- GI50 [43]: > 100 µM (inactive)
- GI50 [44]: > 100 µM (inactive)
- GI50 [45]: > 100 µM (inactive)
- GI50 [46]: > 100 µM (inactive)
- GI50 [47]: > 100 µM (inactive)
- GI50 [48]: > 100 µM (inactive)
- GI50 [50]: > 100 µM (inactive)
- GI50 [51]: > 100 µM (inactive)
- GI50 [52]: > 100 µM (inactive)
- GI50 [53]: > 100 µM (inactive)
- GI50 [59]: > 100 µM (inactive)
- GI50 [54]: > 100 µM (inactive)
